Literature values as cited in patent US12440441B2 (LIQMEDS WORLDWIDE LIMITED, priority 2021, dated 2025).

Key:
calcium channel = conditions: Stopher

Structure (SMILES) | calcium antagonist activity relative to amlodipine (calcium channel) | solubility in ethanol (ethanol) | solubility in water (water)
CCOC(=O)c1c(COCCN)nc(C)c(C(=O)OC)c1-c1ccccc1Cl [Impurity A, Amlodipine Related Substance A] | does not show any significant calcium antagonist activity |  | 
CCOC(=O)C1=C(COCCN)NC(C)=C(C(=O)OC)C1c1ccccc1Cl (stereo not drawn) [Amlodipine besylate, amlodipine besylate] |  | sparingly soluble | slightly soluble
